In patent publication US10786522B2, “Compositions that include anthocyanidins and methods of use” (Maqui NewLife S.A., priority 2009, dated 2020):

Experiments:
NF-κB = NF-κB luciferase reporter assay in HL-60 cells; format: cell-based, Human; conditions: positive control, concentration not given
Procedure: We examined the effect of anthocyanidins on NF-κB activation using a luciferase reporter assay in HL-60 cells (Human promyelocytic leukemia cells). HL-60 cells in IMDM medium were transfected with a reporter vector with an NF-kB consensus sequence located in the luciferase promoter for 24 h at 37° C., then were incubated with delphinidin-rich anthocyanidins diluted 1:500000, 1:50000, and 1:5000. PMA was used as positive control. Luciferase activity was measured with a Dual luciferase assay kit (Promega) according to the supplier's instructions. A vector that constitutively expressed renilla luciferase was used to standardize the assay.

PPAR-γ = experiment: PPAR-γ-Luc reporter assay in HL-60 cells; format: cell-based, Human; conditions: control substances, 12 h, concentration not given
Procedure: We examined the effect of delphindin-rich anthocyanidins on PPAR-γ activation. HL-60 cells in IMDM medium were transfected with the reporter vectors PPAR-γ-Luc (5 μg) (Panomics) and TK-RL (1 μg) (Promega) using Fugene 6 reagent (Roche), and cultured for 24 hr. Then, the cells were incubated for 12 h in 0.175, 1.75, or 17.5 μg/ml of delphindin-rich anthocyanidins, phorbol myristate acetate (PMA), 15-deoxi-d 12,14-prostaglandin J2 (PGj2), or tumor necrosis factor alpha (TNFα) as controls. Luciferase activity was measured using the Dual-Luciferase Reporter Assay kit (DLR) from Promega in a luminometer (Luminoskan).

CCCCCCCCCCCCCC(=O)O[C@@H]1[C@@H](C)[C@@]2(O)[C@@H](C=C(CO)C[C@]3(O)C(=O)C(C)=C[C@@H]23)[C@@H]2C(C)(C)[C@]12OC(C)=O [PMA, phorbol myristate acetate]
Average percentage activity of control [pNF-κB/pRL-luc] (NF-κB): 50% | Average percentage activity of control [PPAR-γ-Luc/TK-RL] ± SD (PPAR-γ): 527.5 ± 536.3%
